For data set [1], the system named is Tetranychus urticae (two-spotted spider mite). The data set can be described thus: Example B4: Tetranychus urticae, mixed population, feeding/residual contact activity, preventive. The format is in vivo. The following applies: foliar, 192 h, bean leaf discs sprayed, 8 days, egg, larval and adult mortality. An excerpt: Activity Against Tetranychus urticae (Two-Spotted Spider Mite) (Mixed Population, Feeding/Residual Contact Activity, Preventive) Bean leaf discs on agar in 24-well microtiter plates are sprayed with test solutions. […] 8 days later, discs are checked for egg mortality, larval mortality, and adult mortality.

Data set [2] relates to Nilaparvata lugens (brown rice planthopper). The data set can be described thus: Example B8: Nilaparvata lugens, larvicide, feeding/contact. The data set is classed as in vivo. The following applies: rice seedlings sprayed, N3 nymphs, 6-12 days after treatment. The method, then: Activity Against Nilaparvata lugens (Brown Rice Planthopper) (Larvicide, Feeding/Contact) Rice seedlings are treated with the diluted test solutions in a spray chamber. After drying, they are infested with 20 N3 nymphs (2 replicates). 6-12 days after the treatment samples are checked for mortality, growth regulation, and effects on the F1 generation.

In data set [3] the test system is Aphis craccivora (cowpea aphid). The data set can be described thus: Example B11: translaminar activity against Aphis craccivora. The format is in vivo. The following applies: 120 h, French bean leaves, aphids on lower side, upper side painted, 5 days, mortality. The method, then: Translaminar Activity Against Aphis craccivora (Cowpea Aphid) French bean leaves (Phaseolus vulgaris) are infested with about 20 mixed age individuals on the lower leaf side using clip cages. 1 day after the infestation, the upper side of the leaves is treated with the test solution by painting. 5 days later, samples are checked for mortality.

For data set [4], the system named is Myzus persicae (green peach aphid). The data set can be described thus: Example B16: Myzus persicae on pepper plants, feeding/residual contact activity. The data set is classed as in vivo. The following applies: 144 h, infested pepper plants sprayed, 6 days after treatment, mortality, read-out: activity against Myzus persicae.
Data set [5] shares this test system. The data set can be described thus: Example B1: Myzus persicae, mixed population, feeding/residual contact activity, preventive. The following applies: foliar, 144 h, read-out: activity.
Data set [6] has the same test system. The data set can be described thus: Example B2: Myzus persicae, mixed population, systemic/feeding activity, curative. As to conditions: 144 h, read-out: activity.
For data set [7], the system named is Thrips Tabaci (onion thrips). The data set can be described thus: Example B3: Thrips tabaci, mixed population, feeding/residual contact activity, preventive. The format is in vivo. The following applies: foliar, 144 h, sunflower leaf discs sprayed, 6 days incubation, mortality.
Data set [8] has as its system Aphis craccivora (cowpea aphid). The data set can be described thus: Example B10: Aphis craccivora, mixed population, systemic/feeding. As to conditions: 144 h, roots of infested pea seedlings in test solution, 6 days, mortality. The format is in vivo. An excerpt:
6 days later, samples are checked for mortality.

For data set [9], the system named is Myzus persicae (green peach aphid). The data set can be described thus: Example B13: drench activity against Myzus persicae. As to conditions: 168 h, pea seedlings in field soil, 7 days after infestation, mortality. The data set is classed as in vivo. The method, then:
Drench Activity Against Myzus persicae (Green Peach Aphid) Pea seedlings cultivated in field soil are treated as drench application and infested with a mixed population of M. persicae. 7 days after infestation, samples are checked for mortality.

The text below walks through data of patent publication US9067892B2, “Spiroheterocyclic N-oxypiperidines as pesticides” (Syngenta Crop Protection, Inc., priority 2008, dated 2015).

The structures appear in SMILES notation.

Compound `CCOC(=O)OC1=C(c2cc(C)ccc2C)C(=O)N(C)C12CCN(OC)CC2` [P1.1] came in with a melting point of 96 to 110 °C.

With `CCOC(=O)OC1=C(c2c(C)cc(C)cc2C)C(=O)N(CC2CC2)C12CCN(OC)CC2` [P1.5], the pest or weed control at 400 ppm in [1], in data set [2] and in data set [3] was > 80% each time. Besides, in [4], the pest or weed control at 200 ppm was ≥ 80%.

`CCOC(=O)OC1=C(c2c(C)cc(C)cc2Cl)C(=O)N(C)C12CCN(OC)CC2` [P1.6]: the pest or weed control at 400 ppm in data set [1] and in data set [5] was > 80% in each case.

For `CCOC(=O)OC1=C(c2c(C)cc(C)cc2C)C(=O)N(C2CC2)C12CCN(OC)CC2` [P1.7], the pest or weed control at 400 ppm in data set [5] was > 80%.

`CCOC(=O)OC1=C(c2c(C)cc(C)cc2C)C(=O)N(CC)C12CCN(OC)CC2` [P1.8] came in with a melting point of 101 to 103 °C.

Regarding `CCOC(=O)OC1=C(c2c(Cl)ccc(C)c2F)C(=O)N(C)C12CCN(OC)CC2` [P1.9], the pest or weed control at 400 ppm in [1] was > 80%.

Regarding `CCOC(=O)OC1=C(c2c(F)ccc(C)c2Cl)C(=O)N(C)C12CCN(OC)CC2` [P1.10], the pest or weed control at 400 ppm in [6] was > 80%.

`CCOC(=O)OC1=C(c2c(C)cc(Br)cc2C)C(=O)N(C)C12CCN(OC)CC2` [P1.12]: the pest or weed control at 400 ppm in [1] and in data set [5] was > 80% in each case. For the same compound, the pest or weed control at 200 ppm in data set [4] was ≥ 80%.

Consider `CCOC(=O)OC1=C(c2c(C)cccc2C)C(=O)N(C)C12CCN(OC)CC2` [P1.13], for which the pest or weed control at 200 ppm in data set [4] is ≥ 80%. For the same compound, the pest or weed control at 400 ppm in data set [5] is > 80%.

For the compound `CCOC(=O)OC1=C(c2c(C)cc(C)cc2C)C(=O)N(CCCOC)C12CCN(OC)CC2` [P1.16], the pest or weed control at 400 ppm in [1] and in data set [5] was > 80% in each case. Further, the pest or weed control at 200 ppm in data set [4] is ≥ 80%.

`CCOC(=O)OC1=C(c2c(C)cc(C)cc2C)C(=O)N(CCOCOC)C12CCN(OC)CC2` [P1.17]: the pest or weed control at 400 ppm in data set [6] and in data set [5] was > 80% throughout.

Turning to `CCOC(=O)OC1=C(c2cc(C)c(C)cc2Br)C(=O)N(C)C12CCN(OC)CC2` [P1.20], the melting point fell in the range of 158 to 159 °C.

Consider `CCOC(=O)OC1=C(c2c(C)ccc(C)c2C)C(=O)N(C)C12CCN(OC)CC2` [P1.21], for which the pest or weed control at 400 ppm in [1] was > 80%. Also, the pest or weed control at 200 ppm in data set [4] is ≥ 80%.

As for `CCOC(=O)OC1=C(c2cc(C)c(C)cc2Cl)C(=O)N(C)C12CCN(OC)CC2` [P1.22], the melting point was 149 to 150 °C.

Turning to `CCOC(=O)OC1=C(c2ccc(C)cc2C)C(=O)N(C)C12CCN(OC)CC2` [P1.25], the pest or weed control at 400 ppm in data set [1] and in data set [5] was > 80% in each case. In data set [4], the pest or weed control at 200 ppm was ≥ 80%.

As to `CCOC(=O)OC1=C(c2c(C)cc(C)cc2C)C(=O)N(CC2CCCO2)C12CCN(OC)CC2` (stereo not drawn) [P1.26], in data set [1], the pest or weed control at 400 ppm is > 80%.

`CCOC(=O)OC1=C(c2c(C)ccc(Cl)c2C)C(=O)N(C)C12CCN(OC)CC2` [P1.27]: the pest or weed control at 200 ppm in [4] is ≥ 80%. Besides, the pest or weed control at 400 ppm in data set [5] was > 80%.

For the compound `CCOC(=O)OC1=C(c2cc(C)c(Cl)cc2C)C(=O)N(C)C12CCN(OC)CC2` [P1.28], the pest or weed control at 400 ppm in [7] is > 80%.

`CCOC(=O)OC1=C(c2c(C)cc(Cl)cc2C)C(=O)N(C)C12CCN(OC)CC2` [P1.29]: in data set [4], the pest or weed control at 200 ppm was ≥ 80%. Moreover, in [5], the pest or weed control at 400 ppm is > 80%.

For the compound `CON1CCC2(CC1)C(O)=C(c1cc(C)ccc1C)C(=O)N2C` [P2.1], the melting point lay within 121 to 123 °C.

`CON1CCC2(CC1)C(O)=C(c1ccc(Cl)cc1Cl)C(=O)N2CC(F)F` [P2.4]: in data set [5], the pest or weed control at 400 ppm was > 80%.

Regarding `COCCN1C(=O)C(c2c(C)cc(C)cc2C)=C(O)C12CCN(OC)CC2` [P2.7], the pest or weed control at 400 ppm in data set [2], in data set [8], in [3] and in [5] was > 80% throughout. In addition, the pest or weed control at 25 ppm in data set [9] was > 80%.

Turning to `CON1CCC2(CC1)C(O)=C(c1c(C)cc(C)cc1C)C(=O)N2CC1CC1` [P2.8, 1-Cyclopropylmethyl-4-hydroxy-8-methoxy-3-(2,4,6-trimethyl-phenyl)-1,8-diaza-spiro[4.5]dec-3-en-2-one], the melting point was 223 to 225 °C.

For the compound `CON1CCC2(CC1)C(O)=C(c1c(C)cc(C)cc1Cl)C(=O)N2C` [P2.9], the pest or weed control at 400 ppm in data set [1], in [6] and in [5] was > 80% each time.

As to `CON1CCC2(CC1)C(O)=C(c1c(C)cc(C)cc1C)C(=O)N2C1CC1` [P2.10], the pest or weed control at 400 ppm in [5] is > 80%.

In turn, `CCN1C(=O)C(c2c(C)cc(C)cc2C)=C(O)C12CCN(OC)CC2` [P2.11] returned a melting point of 218 to 221 °C.

As to `CON1CCC2(CC1)C(O)=C(c1c(F)ccc(C)c1Cl)C(=O)N2C` [P2.13], in [1], the pest or weed control at 400 ppm was > 80%.

On to `CON1CCC2(CC1)C(O)=C(c1cc(C)c(Cl)cc1C)C(=O)N2C` [P2.15], for which, in data set [1], the pest or weed control at 400 ppm was > 80%.

As for `CON1CCC2(CC1)C(O)=C(c1c(C)cc(Br)cc1C)C(=O)N2C` [P2.16], the pest or weed control at 200 ppm in data set [4] was ≥ 80%. The pest or weed control at 400 ppm in data set [6] and in data set [5] was > 80% in each case.

With `CON1CCC2(CC1)C(O)=C(c1c(C)cccc1C)C(=O)N2C` [P2.17], the pest or weed control at 200 ppm in data set [4] is ≥ 80%. Moreover, the pest or weed control at 400 ppm in [5] is > 80%.

On to `COCCCN1C(=O)C(c2c(C)cc(C)cc2C)=C(O)C12CCN(OC)CC2` [P2.20], for which the pest or weed control at 400 ppm in data set [7], in data set [1], in data set [6] and in data set [5] was > 80% in each case.

Regarding `COCOCCN1C(=O)C(c2c(C)cc(C)cc2C)=C(O)C12CCN(OC)CC2` [P2.21], the pest or weed control at 400 ppm in data set [1], in [6] and in data set [5] was > 80% throughout. Also, the pest or weed control at 200 ppm in data set [4] was ≥ 80%.

As to `CON1CCC2(CC1)C(O)=C(c1cc(C)c(C)cc1Br)C(=O)N2C` [P2.23], the melting point lay within 191 to 193 °C.

As to `CON1CCC2(CC1)C(O)=C(c1c(C)ccc(C)c1C)C(=O)N2C` [P2.24], the pest or weed control at 200 ppm in data set [4] was ≥ 80%.

The compound `CON1CCC2(CC1)C(O)=C(c1cc(C)c(C)cc1C)C(=O)N2C` [P2.25] had a melting point of 183 to 186 °C.

As for `CON1CCC2(CC1)C(O)=C(c1cc(C)c(C)cc1Cl)C(=O)N2C` [P2.26, 3-(2-Chloro-4,5-dimethyl-phenyl)-4-hydroxy-8-methoxy-1-methyl-1,8-diaza-spiro[4.5]dec-3-en-2-one], the melting point was in the range of 191 to 192 °C.

`CON1CCC2(CC1)C(O)=C(c1c(C)ccc(Cl)c1C)C(=O)N2C` [P2.27]: the pest or weed control at 200 ppm in data set [4] is ≥ 80%.

On to `CON1CCC2(CC1)C(O)=C(c1c(C)cc(C)cc1C)C(=O)N2CC1(C)COC1` [P2.30], for which the pest or weed control at 200 ppm in data set [4] is ≥ 80%.

Regarding `CON1CCC2(CC1)C(O)=C(c1c(C)cc(C)c(Cl)c1C)C(=O)N2C` [P2.31], the pest or weed control at 400 ppm in data set [1], in data set [6] and in data set [5] was > 80% in each case. Besides, in data set [4], the pest or weed control at 200 ppm is ≥ 80%.

As for `CON1CCC2(CC1)C(O)=C(c1c(C)cc(C)cc1C)C(=O)N2CC1CCCO1` (stereo not drawn) [P2.32], the pest or weed control at 400 ppm in data set [1] is > 80%.

With `CON1CCC2(CC1)C(O)=C(c1c(C)cc(Cl)cc1C)C(=O)N2C` [P2.33], the pest or weed control at 200 ppm in data set [4] is ≥ 80%. In addition, in [5], the pest or weed control at 400 ppm was > 80%.

Consider `CON1CCC2(CC1)C(O)=C(c1c(C)cc(Br)cc1Cl)C(=O)N2C` [P2.34], for which the pest or weed control at 200 ppm in data set [4] was ≥ 80%.

Turning to `COc1cc(COC2=C(c3cc(C)ccc3C)C(=O)NC23CCN(OC)CC3)cc(OC)c1OC` [P3.1], the pest or weed control at 400 ppm in data set [7] was > 80%.

As to `COc1ccc(COC2=C(c3cc(C)ccc3C)C(=O)NC23CCN(OC)CC3)cc1` [P3.2], the pest or weed control at 400 ppm in data set [7] was > 80%.

Turning to `CON1CCC2(CC1)NC(=O)C(c1c(C)cc(C)cc1C)=C2OCc1ccccc1` [P3.4, 4-benzyloxy-8-methoxy-3-(2,4,6-trimethyl-phenyl)-1,8-diaza-spiro[4.5]dec-3-en-2-one], the pest or weed control at 400 ppm in data set [7] and in data set [1] was > 80% throughout.

`CON1CCC2(CC1)C(OCc1ccccc1)=C(c1c(C)cc(C)cc1C)C(=O)N2CC1CC1` [P3.8, 4-benzyloxy-1-cyclopropylmethyl-8-methoxy-3-(2,4,6-trimethyl-phenyl)-1,8-diaza-spiro[4.5]dec-3-en-2-one]: the pest or weed control at 400 ppm in [1] was > 80%.

What is called melting point is the temperature, or range, at which the solid turns liquid.
